Results taken from patent US8518883B2, “Method of reducing deleterious effects of ischemia by administration of a thrombopoietin receptor ligand” (MCW Research Foundation, Inc., priority 2006, dated 2013).

Columns and labels:
in vitro rat hearts = assay: Isolated perfused (Langendorff) rat heart, 25 min global ischemia and 180 min reperfusion: hemodynamics, infarct size, recovery of LVDP
Experimental: The study was directed to determining whether Tpo (0.01-10.0 ng/ml) confers immediate cardioprotection in rat hearts and the contribution of potassium channels to the underlying mechanism. Hearts from normoxic 8 week old Sprague Dawley rats (n=8/group) were isolated and perfused in the Langendorff mode. Hemodynamic function was recorded under steady-state conditions prior to 25 minutes global no flow ischemia and 180 minutes reperfusion.
Isolated heart perfusion. Isolated rat hearts were perfused with bicarbonate buffer at constant pressure in a retrograde manner and instrumented as described in Baker, et al., Am. J. Physiol. Heart Circulat. Physiol. 278:1395-1400, 2000 potassium channel blockers were added to this perfusate as needed. A 3-way tap, located immediately above the site of cannulation, allowed the entire perfusate to be diverted away from the heart to produce global, no-flow ischemia. Reperfusion was achieved by repositioning of the tap to allow perfusate to be delivered to the heart. Left ventricular function was monitored continuously throughout each experiment as described in Baker, et al., supra, 2000. End-diastolic pressure was initially set to 3 mmHg for 2 minutes. The balloon was then progressively inflated with a microsyringe to set end-diastolic pressures to 8 mmHg for the left ventricle, with developed pressure and heart rate recorded during steady-state conditions. Coronary flow rate was measured throughout the experiment by timed collections of the coronary effluent from the right side of the heart into a graduated cylinder. Coronary flow rate was expressed as milliliters per minute per gram wet weight.
Resistance to myocardial ischemia. Hearts from adult rats were perfused with bicarbonate buffer, and biventricular function was monitored continuously throughout each experiment as described in Baker, et al., supra, 2000. For concentration response studies, hearts were then perfused with Tpo (0.01-10.0 ng/ml) for 15 minutes prior to 25 minutes ischemia and 180 minutes reperfusion. For mechanism studies with potassium channel blockers, hearts were perfused with drugs for 15 minutes alone followed by 15 minutes in combination with Tpo prior to ischemia. Hearts perfused with potassium channel blockers alone in the absence of Tpo for 30 minutes prior to ischemia served as untreated controls for these studies. Recovery of post-ischemic left ventricular developed pressure was expressed as a percentage of its pre-drug, pre-ischemic value.
Assessment of ventricular function. Left ventricular function was monitored continuously throughout each experiment as described in Baker, et al., supra, 2000. Recovery of left ventricular pressure following ischemia was used to assess resistance to ischemia.
Measurement of infarct size/area at risk at 3 hours reperfusion were used to assess resistance to myocardial ischemia. For characterization of infarction size, hearts were perfused with 10 ml bicarbonate buffer containing triphenyltetrazolium chloride (SIGMA) at 37° C.
The heart was sectioned in 2 mm segments from apex to atrio-ventricular groove in a transverse fashion. Each segment was recorded and placed in formalin. After twenty-four (24) hours, the specimen was digitally photographed in a camera mount to normalize specimen-to-lens distance. Each photograph was then appended to Adobe Photoshop (Adobe™) to measure pixel density of infarcted versus non-infarcted areas. The percentage of infarction of each slide was expressed as a percentage of the entire area of the heart.
Hearts from male Sprague Dawley rats at 8 weeks of age were isolated and perfused with Tpo at 0.01, 0.1, 1.0, and 10 ng/ml for 15 minutes prior to 25 minutes global ischemia and 180 minutes reperfusion (FIG. 2). Tpo (1.0 ng/ml) reduced coronary flow rate prior to ischemia from 6±1 ml/min/g to 5±1 ml/min/g, increased left ventricular developed pressure from 119±15 mmHg to 151±19 mmHg and decreased heart rate from 240±34 beats/minute to 228±17 beats/minute. […]

Sprague Dawley rats = assay: Coronary artery ligation model, delayed cardioprotection, Tpo given 24 hours before ischemia; format: in vivo, rat; settings: Tpo 0.05 micrograms/kg 24 hours before 30 min regional ischemia, 3 hours reperfusion
Experimental: Animals used in this study were adult male Sprague Dawley rats (200-350 g, generally 300 g). Animals were housed under standard conditions and allowed to feed ad lib.
Rats were anesthetized with sodium pentobarbital (50 mg/kg i.p.). Heparin was administered (150 U/kg i.p.) to prevent the formation of a thrombus in the coronary vasculature. A myocardial infarction was produced via the ligation of the left main artery using 6-0 prolene suture (See, e.g., Clements-Jewery, et al., supra, 2002; Farkas et al., supra, 2002). The left main coronary artery was identified and ligated with a 5-0 Prolene suture threaded through a polyethylene tube to act as an occluder. A control group included sham operated hearts in which only a suture was passed around the left main coronary artery was performed.
Animals were treated with Tpo (0.05 micrograms/kg) administered intraperitoneally and the animals allowed to recover for 24 hours prior to the onset of ischemia. Regional ischemia and reperfusion were induced by tightening the occluder and by releasing it. Hearts were then subjected to 30 minutes regional ischemia followed by 3 hours reperfusion. […]
The heart was sectioned in 2 mm segments from apex to atrio-ventricular groove in a transverse fashion. Each segment was recorded and placed in formalin. […] The percentage of infarction of each slide was expressed as a percentage of the entire area of the heart.

[1] = POST DRUG, Tpo 0.01 ng/ml for 15 min
[2] = POST DRUG, Tpo 0.1 ng/ml for 15 min
[3] = POST DRUG, Tpo 1.0 ng/ml for 15 min
[4] = POST DRUG, Tpo 10.0 ng/ml for 15 min
[5] = REPERFUSION, Tpo 0.01 ng/ml, 25 min global ischemia, 180 min reperfusion
[6] = REPERFUSION, Tpo 0.1 ng/ml, 25 min global ischemia, 180 min reperfusion
[7] = REPERFUSION, Tpo 1.0 ng/ml, 25 min global ischemia, 180 min reperfusion
[8] = REPERFUSION, Tpo 10.0 ng/ml, 25 min global ischemia, 180 min reperfusion
[9] = Tpo 0.01-10.0 ng/ml for 15 min prior to 25 min global ischemia, 180 min reperfusion

Which results are given for Thrombopoietin [Tpo]?
Infarct size following ischemia and reperfusion (in vitro rat hearts; 'U' shaped concentration-dependent, Tpo 0.01-10.0 ng/ml): reduced; Coronary flow rate (in vitro rat hearts; [1]): 5 ± 1 mL/min/g; Heart rate (in vitro rat hearts; [1]): 202 ± 16 beats/min; Left ventricle developed pressure (in vitro rat hearts; [1]): 156 ± 13 mmHg; Coronary flow rate (in vitro rat hearts; [2]): 5 ± 1 mL/min/g; Heart rate (in vitro rat hearts; [2]): 233 ± 12 beats/min; Left ventricle developed pressure (in vitro rat hearts; [2]): 158 ± 13 mmHg; Coronary flow rate (in vitro rat hearts; [3]): 5 ± 1 mL/min/g; Heart rate (in vitro rat hearts; [3]): 228±17 beats/min; Left ventricle developed pressure (in vitro rat hearts; [3]): 151±19 mmHg; Coronary flow rate (in vitro rat hearts; [4]): 6 ± 1 mL/min/g; Heart rate (in vitro rat hearts; [4]): 220 ± 10 beats/min; Left ventricle developed pressure (in vitro rat hearts; [4]): 172 ± 26 mmHg; Coronary flow rate (in vitro rat hearts; PRE DRUG, Tpo 0.01 ng/ml group): 6 ± 1 mL/min/g; Heart rate (in vitro rat hearts; PRE DRUG, Tpo 0.01 ng/ml group): 225 ± 31 beats/min; Left ventricle developed pressure (in vitro rat hearts; PRE DRUG, Tpo 0.01 ng/ml group): 130 ± 13 mmHg; Coronary flow rate (in vitro rat hearts; PRE DRUG, Tpo 0.1 ng/ml group): 5 ± 1 mL/min/g; Heart rate (in vitro rat hearts; PRE DRUG, Tpo 0.1 ng/ml group): 228 ± 17 beats/min; Left ventricle developed pressure (in vitro rat hearts; PRE DRUG, Tpo 0.1 ng/ml group): 120 ± 15 mmHg; Coronary flow rate (in vitro rat hearts; PRE DRUG, Tpo 1.0 ng/ml group): 6 ± 1 mL/min/g; Heart rate (in vitro rat hearts; PRE DRUG, Tpo 1.0 ng/ml group): 240±34 beats/min; Left ventricle developed pressure (in vitro rat hearts; PRE DRUG, Tpo 1.0 ng/ml group): 119±15 mmHg; Coronary flow rate (in vitro rat hearts; PRE DRUG, Tpo 10.0 ng/ml group): 6 ± 1 mL/min/g; Heart rate (in vitro rat hearts; PRE DRUG, Tpo 10.0 ng/ml group): 226 ± 29 beats/min; Left ventricle developed pressure (in vitro rat hearts; PRE DRUG, Tpo 10.0 ng/ml group): 134 ± 13 mmHg; Coronary flow rate (in vitro rat hearts; [5]): 3 ± 1 mL/min/g; Heart rate (in vitro rat hearts; [5]): 184 ± 31 beats/min; Left ventricle developed pressure (in vitro rat hearts; [5]): 52 ± 9 mmHg; Coronary flow rate (in vitro rat hearts; [6]): 3 ± 1 mL/min/g; Heart rate (in vitro rat hearts; [6]): 197 ± 36 beats/min; Left ventricle developed pressure (in vitro rat hearts; [6]): 64 ± 11 mmHg; Coronary flow rate (in vitro rat hearts; [7]): 4 ± 1 mL/min/g; Heart rate (in vitro rat hearts; [7]): 204 ± 41 beats/min; Left ventricle developed pressure (in vitro rat hearts; [7]): 62 ± 8 mmHg; Coronary flow rate (in vitro rat hearts; [8]): 4 ± 1 mL/min/g; Heart rate (in vitro rat hearts; [8]): 183 ± 16 beats/min; Left ventricle developed pressure (in vitro rat hearts; [8]): 64 ± 10 mmHg; Recovery of coronary flow rate (in vitro rat hearts; Tpo 1.0 ng/ml): unaffected; Recovery of heart rate (in vitro rat hearts; Tpo 1.0 ng/ml, untreated hearts 94±6%): 85±7 % of pre-ischemic values; Optimal concentration of Tpo that afforded maximum reduction of infarct size (in vitro rat hearts; [9]): 1.0 ng/mL; Optimal concentration that afforded maximal recovery of post-ischemic ventricular developed pressure (in vitro rat hearts; [9]): 1.0 ng/mL; Recovery of left ventricular developed pressure following ischemia and reperfusion (in vitro rat hearts; bell-shaped concentration-dependent, Tpo 0.01-10.0 ng/ml): increased; Myocardial infarct size (Sprague Dawley rats): decrease
